The values below come from patent publication US10179777B2, “3-(1H-benzimidazol-2-yl)-1H-pyridin-2-one derivatives” (MERCK PATENT GMBH, priority 2015, dated 2019).

For assay [1], the target named is T1, ALK2 (GST-modified kinase domain ACVR1(145-509)) (Homo sapiens, UniProt Q04771).
T1 construct: N-terminally GST-modified kinase domain ACVR1(145-509); GST (N)
T1 sequence (Q04771 145-509): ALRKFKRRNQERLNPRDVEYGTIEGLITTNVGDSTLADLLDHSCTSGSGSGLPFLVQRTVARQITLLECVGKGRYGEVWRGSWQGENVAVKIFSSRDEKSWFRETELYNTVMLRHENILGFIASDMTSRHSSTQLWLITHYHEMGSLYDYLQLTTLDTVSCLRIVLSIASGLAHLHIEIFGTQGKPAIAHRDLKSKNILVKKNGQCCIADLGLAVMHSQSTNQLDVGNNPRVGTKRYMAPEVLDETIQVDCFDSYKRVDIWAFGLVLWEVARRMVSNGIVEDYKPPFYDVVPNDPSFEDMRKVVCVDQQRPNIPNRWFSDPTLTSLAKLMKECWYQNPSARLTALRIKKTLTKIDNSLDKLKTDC
As to the kind of experiment: ALK2 kinase inhibition assay (33P-ATP filter binding, Reaction Biology). Format: biochemical. The settings on record: casein substrate, 20 μM ATP (Km ATP), 120 min ambient temperature. Here is the method:
(§1) The protein sequences of the kinases targeted and accompanying information are described in publically available data base http://www.uniprot.org/uniprot/for ALK1 www.uniprot.org/uniprot/P37023, for ALK2 www.uniprot.org/uniprot/Q04771 and for ALK5 www.uniprot.org/uniprot/P36897. IC50 determination of the novel inhibitors described was performed at Reaction Biology Corp., Malvern, Pa., USA, with assay conditions open to public at www.reactionbiology.com/webapps/site/KinaseDetail.aspx?page=Kinases&id=1, and www.reactionbiology.com/webapps/site/Kinase Assay Protocol.aspx. In addition, they were specified previously in Anastassiadis et al. Nat. Biotechnol. 29(11): 1039-1045. doi:10.1038/nbt.2017.
A2) ALK2 Kinase Inhibition Assay
(§2) was performed similar to procedure A1 with N-terminally GST-modified kinase domain ACVR1(145-509) and 1 mg/ml Casein as substrate in reaction buffer of 20 mM HEPES pH 7.5, 10 mM MgCl2, 1 mM EGTA, 0.02% Brij, 0.02 mg/ml BSA, 0.1 mM Na3VO4, 2 mM DTT, 1% DMSO. […] Reactions were carried out at ambient temperature for 120 min, followed by spotting of the reactions onto P81 ion exchange filter paper (Whatman Inc., Picataway, N.J., USA). Unbound phosphate was removed by extensive washing of filters in 0.75% phosphoric acid. After subtraction of background derived from control reactions without enzyme activity, kinase activity data was expressed as the percent remaining kinase activity in test samples compared to vehicle (DMSO) reactions. IC50 values and curve fits were obtained using Prism (GraphPad Software).

Assay [2] deals with T2, ALK5 (TGFβR1; GST-modified TGFBR1 (200-503)) (Homo sapiens, UniProt P36897).
T2 construct: Using GST-Modified TGFBR1 (200-503); GST
T2 sequence (P36897 200-503): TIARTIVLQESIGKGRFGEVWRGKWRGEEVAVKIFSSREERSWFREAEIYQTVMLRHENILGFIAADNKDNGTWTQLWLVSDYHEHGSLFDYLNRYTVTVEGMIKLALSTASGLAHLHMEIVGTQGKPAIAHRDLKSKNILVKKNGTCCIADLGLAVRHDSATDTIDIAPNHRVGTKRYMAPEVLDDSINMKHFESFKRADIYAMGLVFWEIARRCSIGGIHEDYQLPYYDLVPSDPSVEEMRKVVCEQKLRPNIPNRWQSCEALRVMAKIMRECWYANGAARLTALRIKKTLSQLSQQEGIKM
As to the kind of experiment: ALK5 kinase inhibition assay (33P-ATP filter binding, Reaction Biology). It counts as biochemical. The following applies: casein substrate, 200 μM ATP. The method, then:
as §1
A3) ALK5 Kinase Inhibition Assay Was Performed Similar to Procedures A1 and A2 Using GST-Modified TGFBR1 (200-503) and 1 mg/ml Casein as Substrate at 200 μM ATP.

For assay [3], the target named is T3, ALK1 (GST-modified kinase domain ACVRL1 (139-503)) (Homo sapiens, UniProt P37023).
T3 construct: N-terminally GST-modified kinase domain ACVRL1 (139-503); GST (N)
T3 sequence (P37023 139-503): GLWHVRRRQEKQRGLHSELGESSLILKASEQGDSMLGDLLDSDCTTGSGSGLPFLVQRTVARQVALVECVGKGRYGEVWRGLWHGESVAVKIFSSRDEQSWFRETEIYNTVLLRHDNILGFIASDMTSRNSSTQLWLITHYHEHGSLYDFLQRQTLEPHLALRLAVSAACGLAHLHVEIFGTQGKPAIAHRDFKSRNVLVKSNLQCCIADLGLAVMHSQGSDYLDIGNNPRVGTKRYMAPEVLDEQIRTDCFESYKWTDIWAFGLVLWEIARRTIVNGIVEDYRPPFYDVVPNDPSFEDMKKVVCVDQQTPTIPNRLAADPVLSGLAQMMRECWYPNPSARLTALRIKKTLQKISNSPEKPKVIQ
As to the kind of experiment: ALK1 kinase inhibition assay (33P-ATP filter binding, Reaction Biology). It counts as biochemical. The settings on record: casein substrate, 100 μM ATP (Km ATP), 120 min ambient temperature. The method, then:
as §1
A1) ALK1 Kinase Inhibition Assay
as §2, with “performed” for “performed similar to procedure A1”, “domain ACVRL1 (139-503)” for “domain ACVR1(145-509)”, “and 20” for “and 1”

Assay [4] has as its system ALK1-mediated SMAD1/5 phosphorylation in HUVEC cells. As to the kind of experiment: Cell-based immunofluorescence assay for ALK1-mediated SMAD1/5 phosphorylation in HUVEC cells. The following applies: Homo sapiens, 1.5 ng/ml BMP-9 with compound for 2 h, % nuclei with pSMAD1/5 signal, read-out: Smad 1/5 IC50. An excerpt: In vitro cell-based Immunofluorescence-Assay for identification of inhibitors of ALK1-mediated SMAD1/5 phosphorylation in HUVEC cells:
ALK1 is a type I cell-surface receptor for the TGF-β superfamily of ligands. In adults ALK1 is mainly expressed on activated endothelial cells, e.g. during wound healing or in tumor angiogenesis. BMP9 and BMP10 are high affinity ligands for ALK1.
BMP9 and BMP10 binding leads to the phosphorylation of so-called Smad1 at Ser463 and Ser465 in the carboxy-terminal motif SSXS, as well as Smad5 and Smad8 at their corresponding sites. These phosphorylated Smads dimerize with the coactivating Smad4 and translocate to the nucleus, where they stimulate transcription of target genes.
Primary endothelial cells (HUVEC: Human Umbilical Vein Endothelial Cells; supplier Promocell) are cultivated in the culture medium obtained from Promocell (with supplements corresponding to 5% FCS) for maximum 5 passages, seeded into black 384-well culture plates with clear bottom (3000 cells/well/30 μl), and incubated for 16-24 hours at 37° C., 5% CO2 and 90% rH.
The following day cells were serum-starved for 2-3 h in order to stop TGF-ß-mediated signalling derived from ligands present in FBS. 1.5 ng/ml BMP-9 was than added in parallel with test compounds for 2 h at 37° C., 5% CO2 in order to identify compounds which block functional activity of ALK1 leading to phosphorylation and nuclear translocation of SMAD1/5/8.
After fixation (15 min 4% Formaldehyd in PBS) and permeabilization (10 min 0.2% Triton X-100 in PBS) an indirect immunocytochemical staining is performed with a specific Phospho-Smad1/5 (Ser463/465) antibody (Cell Signaling #9516) and Alexa488-labelled secondary anti-rabbit-IgG-antibody. DNA staining with Propidium Iodide allowed parallel cell counting. Image acquisition and analysis was performed on an MDS ImageXpress Ultra confocal High Content Reader using the image analysis software MetaXpress. Final read-out were % nuclei with a pSMAD1/5 signal above a defined background.
The final DMSO concentration in the assay was 0.5%. DMSO-treated HUVEC cells served as neutral control (=0%) and cells treated with 10 μM of a reference inhibitor described in a patent served as inhibitor control (=−100%). Raw data were normalised to the neutral and inhibitory references. The assay was performed as dose response (10 compound dilutions, 1 nM-30 μM).

Where a name gives a salt, the structure may show the parent alone.

As for `O=c1[nH]cc(-c2cccc(CO)c2)cc1-c1nc2cc(N3CCOCC3)ccc2[nH]1` [Compound A1, 5-(3-Hydroxymethyl-phenyl)-3-(5-morpholin-4-yl-1H-benzimidazol-2-yl)-1H-pyridin-2-one], the IC50 in assay [1] was found to be 94 nM; in assay [2], 3600 nM; in assay [3], 39 nM; in assay [4] it was 1300 nM.

As to `O=c1[nH]cc(-c2cccc(CO)c2)cc1-c1nc2cc(N3CCC(O)CC3)ccc2[nH]1` [Compound A12, 5-(3-Hydroxymethyl-phenyl)-3-[5-(4-hydroxy-piperidin-1-yl)-1H-benzimidazol-2-yl]-1H-pyridin-2-one], the IC50 in assay [1] amounted to 57 nM; in assay [2], 4100 nM; in assay [3], 28 nM; in assay [4] it was 7200 nM.

With `O=c1[nH]cc(-c2cccc(CO)c2)cc1-c1nc2cc(N3CCNCC3)ccc2[nH]1` [Compound A13, 5-(3-Hydroxymethyl-phenyl)-3-(5-piperazin-1-yl-1H-benzimidazol-2-yl)-1H-pyridin-2-one dihydrochloride], the IC50 came to 1 nM in assay [1], 970 nM in assay [2], 1 nM in assay [3] and 400 nM in assay [4].

Turning to `O=c1[nH]cc(-c2ccc(CO)cc2)cc1-c1nc2cc(N3CCNCC3)ccc2[nH]1` [Compound A16, 5-(4-Hydroxymethyl-phenyl)-3-(5-piperazin-1-yl-1H-benzimidazol-2-yl)-1H-pyridin-2-one], the IC50 in assay [1] is 8 nM; in assay [2] it was 2400 nM; in assay [3], 6 nM; in assay [4] it was 590 nM.

On to `O=c1[nH]cc(-c2ccc(F)c(CO)c2)cc1-c1nc2cc(N3CCCNCC3)ccc2[nH]1` [Compound A24, 3-(5-[1,4]Diazepan-1-yl-1H-benzimidazol-2-yl)-5-(4-fluoro-3-hydroxymethyl-phenyl)-1H-pyridin-2-one], for which the IC50 in assay [1] turned out to be 41 nM; in assay [2], 6500 nM; in assay [3], 33 nM.

`CN1CCN(c2ccc3[nH]c(-c4cc(-c5cccc(CO)c5F)c[nH]c4=O)nc3c2)CC1` [Compound A37, 5-(2-Fluoro-3-hydroxymethyl-phenyl)-3-[5-(4-methyl-piperazin-1-yl)-1H-benzimidazol-2-yl]-1H-pyridin-2-one trifluoroacetate]: the IC50 in assay [1] was 30 nM; in assay [2] it was 2500 nM; in assay [3] it was 4 nM.

Take `O=c1[nH]cc(-c2ccnc3[nH]ccc23)cc1-c1nc2cc(N3CCC(O)CC3)ccc2[nH]1` [Compound A38, 3-[5-(4-Hydroxy-piperidin-1-yl)-1H-benzimidazol-2-yl]-5-(1H-pyrrolo[2,3-b]-pyridin-4-yl)-1H-pyridin-2-one]: the figures for the IC50 in assay [1], in assay [2] and in assay [3] were 19 nM, 320 nM and 3.7 nM, respectively.

For the compound `COc1ccc2[nH]c(-c3cc(-c4ccnc5[nH]ccc45)c[nH]c3=O)nc2c1` [Compound A42, 3-(5-Methoxy-1H-benzimidazol-2-yl)-5-(1H-pyrrolo[2,3-b]pyridin-4-yl)-1H-pyridin-2-one], in assay [4], the IC50 came out at 7900 nM.

As to `Cc1[nH]c2ncccc2c1-c1c[nH]c(=O)c(-c2nc3cc(N4CCNCC4)ccc3[nH]2)c1` [Compound A45, 5-(2-Methyl-1H-pyrrolo[2,3-b]pyridin-3-yl)-3-(5-piperazin-1-yl-1H-benzimidazol-2-yl)-1H-pyridin-2-one], the IC50 in assay [4] was found to be 5000 nM.

As for `O=c1[nH]cc(-c2ccnc3[nH]ccc23)cc1-c1nc2cc(N3CC4CCC(C3)N4)ccc2[nH]1` [Compound A46, 3-[6-(3,8-Diaza-bicyclo[3.2.1]oct-3-yl)-1H-benzimidazol-2-yl]-5-(1H-pyrrolo-[2,3-b]pyridin-4-yl)-1H-pyridin-2-one], the IC50 in assay [4] came out at 4400 nM.

Consider `O=c1[nH]cc(-c2ccnc3[nH]ccc23)cc1-c1nc2cc(N3CCCNCC3)ccc2[nH]1` [Compound A47, 3-(5-[1,4]Diazepan-1-yl-1H-benzimidazol-2-yl)-5-(1H-pyrrolo[2,3-b]pyridin-4-yl)-1H-pyridin-2-one], for which the results for the IC50 in assay [1], in assay [2] and in assay [3] were 38 nM, 200 nM and 1 nM, respectively.

For the compound `CN1C2CCC1CN(c1ccc3[nH]c(-c4cc(-c5ccnc6[nH]ccc56)c[nH]c4=O)nc3c1)C2` [Compound A53, 3-[6-(8-Methyl-3,8-diaza-bicyclo[3.2.1]oct-3-yl)-1H-benzimidazol-2-yl]-5-(1H-pyrrolo[2,3-b]pyridin-4-yl)-1H-pyridin-2-one], the IC50 in assay [4] was determined as 2800 nM.
